{"source": "patent US20130089629A1", "about": "“KIT FOR THE TREATMENT OF ONYCHOMYCOSIS BY NITRIC OXIDE” (TOPICAL PHARMA AB, priority 2010, published 2013)", "test_system": "skin surrounding the finger nail and the nail itself", "experiment": "Acidifying effect of salicylic acid paste in a fingerstall on skin and finger nail", "type": "in vivo", "details": "paste 2% w/w in fingerstall, about 12 hours, vs empty fingerstall", "procedure": "In a study designed to investigate the acidifying effect on the skin surrounding the finger nail as well as the nail itself a paste comprising salicylic acid at 2% w/w was inserted in a fingerstall. The fingerstall was applied over the top of the finger covering it tightly for about 12 hours. A completely empty stall covering another finger served as control for the same time period\nUpon scratching the nail surface with a sharp metal edge device, nail fragments (keratinized cells) were easily released in contrast to the nail at the finger covered with an empty fingerstall where the nail plate surface was hard.", "data": [{"smiles": "O=C(O)c1ccccc1O", "note": "[salicylic acid]", "values": [{"measurement": "appearance of the skin after exposure", "value": "softening and loosening up of the skin"}, {"measurement": "effect on the nail plate surface", "value": "loosened up the superficial outer nail plate layer"}]}]}
